Results published in PubChem BioAssay (NCI).
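GI50 = concentration required for 50% inhibition of growth. TGI: total growth inhibition.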

Key:
Test in all cases: growth of human tumour cells (NCI), 384-well format
NCI-H322M lung = test system: NCI-H322M lung
NCI-H23 lung = test system: NCI-H23 lung
A549 NSCLC = test system: A549 NSCLC
KM12 colon = test system: KM12 colon
COLO 205 colon = test system: COLO 205 colon
UACC-257 melanoma = test system: UACC-257 melanoma
SNB-19 CNS = test system: SNB-19 CNS
ACHN renal = test system: ACHN renal
HT29 colon = test system: HT29 colon
SF-295 CNS = test system: SF-295 CNS
SR leukemia = test system: SR leukemia
HCT-15 colon = test system: HCT-15 colon
K-562 leukemia = test system: K-562 leukemia
IGROV1 ovarian = test system: IGROV1 ovarian
786-0 renal = test system: 786-0 renal
OVCAR-5 ovarian = test system: OVCAR-5 ovarian
LOX IMVI melanoma = test system: LOX IMVI melanoma
SK-MEL-28 melanoma = test system: SK-MEL-28 melanoma
SK-OV-3 ovarian = test system: SK-OV-3 ovarian
SN12C renal = test system: SN12C renal
OVCAR-3 ovarian = test system: OVCAR-3 ovarian
PC-3 prostate = test system: PC-3 prostate
SNB-75 CNS = test system: SNB-75 CNS
UO-31 renal = test system: UO-31 renal
OVCAR-8 ovarian = test system: OVCAR-8 ovarian
MDA-MB-435 melanoma = test system: MDA-MB-435 melanoma
BT-549 breast = test system: BT-549 breast
OVCAR-4 ovarian = test system: OVCAR-4 ovarian
SF-268 CNS = test system: SF-268 CNS
NCI-H226 lung = test system: NCI-H226 lung
TK-10 renal = test system: TK-10 renal
CAKI-1 renal = test system: CAKI-1 renal
MDA-MB-231 breast = test system: MDA-MB-231 breast
RXF 393 renal = test system: RXF 393 renal
HS 578T breast = test system: HS 578T breast
T-47D breast = test system: T-47D breast
MOLT-4 leukemia = test system: MOLT-4 leukemia
SK-MEL-5 melanoma = test system: SK-MEL-5 melanoma
HCC-2998 colon = test system: HCC-2998 colon
SK-MEL-2 melanoma = test system: SK-MEL-2 melanoma
DU-145 prostate = test system: DU-145 prostate
SW-620 colon = test system: SW-620 colon
MALME-3M melanoma = test system: MALME-3M melanoma
HCT-116 colon = test system: HCT-116 colon
M14 melanoma = test system: M14 melanoma
NCI/ADR-RES ovarian = test system: NCI/ADR-RES ovarian
A498 renal = test system: A498 renal
HOP-62 NSCLC = test system: HOP-62 NSCLC
CCRF-CEM leukemia = test system: CCRF-CEM leukemia
EKVX NSCLC = test system: EKVX NSCLC
NCI-H460 NSCLC = test system: NCI-H460 NSCLC
SF-539 CNS = test system: SF-539 CNS
MCF7 breast = test system: MCF7 breast
U251 glioblastoma = test system: U251 glioblastoma
HL-60(TB) leukemia = test system: HL-60(TB) leukemia
RPMI-8226 leukemia = test system: RPMI-8226 leukemia
MDA-MB-468 breast = test system: MDA-MB-468 breast
NCI-H522 lung = test system: NCI-H522 lung
UACC-62 melanoma = test system: UACC-62 melanoma
HOP-92 NSCLC = test system: HOP-92 NSCLC

Molecule `O=C(c1ccc(Oc2ccccc2)cc1Cl)c1c[nH]c2ncnc(N[C@@H]3CC[C@@H](CO)OC3)c12` has a GI50 (NCI-H322M lung) of 249 nM, a TGI (NCI-H322M lung) of 1780 nM and a GI50 (NCI-H23 lung) of 67 nM. For the same molecule, the TGI (NCI-H23 lung) was 385 nM, the GI50 (A549 NSCLC) was 244 nM and the TGI (A549 NSCLC) was 1540 nM. For the same molecule, the GI50 (KM12 colon) was 19.4 nM, the TGI (KM12 colon) was 171 nM and the GI50 (COLO 205 colon) was 17.7 nM. It also gave a TGI (COLO 205 colon) of 113 nM, a GI50 (UACC-257 melanoma) of 21.7 nM and a TGI (UACC-257 melanoma) of 83.9 nM. The GI50 (SNB-19 CNS) was 372 nM, the TGI (SNB-19 CNS) was 3950 nM and the GI50 (ACHN renal) was 121 nM. For the same molecule, the TGI (ACHN renal) was 983 nM, the GI50 (HT29 colon) was 33.4 nM and the TGI (HT29 colon) was 1300 nM. It also gave a GI50 (SF-295 CNS) of 1000 nM, a TGI (SF-295 CNS) of 3330 nM and a GI50 (SR leukemia) of 186 nM. For the same molecule, the TGI (SR leukemia) was 343 nM, the GI50 (HCT-15 colon) was 510 nM and the TGI (HCT-15 colon) was 3340 nM. For the same molecule, the GI50 (K-562 leukemia) was 153 nM, the TGI (K-562 leukemia) was 399 nM and the GI50 (IGROV1 ovarian) was 30.6 nM. For the same molecule, the TGI (IGROV1 ovarian) was 987 nM, the GI50 ([…]-0 renal) was 1110 nM and the TGI (786-0 renal) was 4610 nM. It also gave a GI50 (OVCAR-5 ovarian) of 153 nM, a TGI (OVCAR-5 ovarian) of 938 nM and a GI50 (LOX IMVI melanoma) of 33.1 nM. It also gave a TGI (LOX IMVI melanoma) of 161 nM, a GI50 (SK-MEL-28 melanoma) of 13.3 nM and a TGI (SK-MEL-28 melanoma) of 55.8 nM. The GI50 (SK-OV-3 ovarian) was 201 nM, the TGI (SK-OV-3 ovarian) was 965 nM and the GI50 (SN12C renal) was 193 nM. For the same molecule, the TGI (SN12C renal) was 1380 nM, the GI50 (OVCAR-3 ovarian) was 130 nM and the TGI (OVCAR-3 ovarian) was 3180 nM. It also gave a GI50 (PC-3 prostate) of 2320 nM, a TGI (PC-3 prostate) of 11600 nM and a GI50 (SNB-75 CNS) of 801 nM. For the same molecule, the TGI (SNB-75 CNS) was 2280 nM, the GI50 (UO-31 renal) was 305 nM and the TGI (UO-31 renal) was 1450 nM. For the same molecule, the GI50 (OVCAR-8 ovarian) was 390 nM, the TGI (OVCAR-8 ovarian) was 2080 nM and the GI50 (MDA-MB-435 melanoma) was 17 nM. For the same molecule, the TGI (MDA-MB-435 melanoma) was 170 nM, the GI50 (BT-549 breast) was 313 nM and the TGI (BT-549 breast) was 1460 nM. The GI50 (OVCAR-4 ovarian) was 1130 nM, the TGI (OVCAR-4 ovarian) was 7200 nM and the GI50 (SF-268 CNS) was 482 nM. The TGI (SF-268 CNS) was 4890 nM, the GI50 (NCI-H226 lung) was 135 nM and the TGI (NCI-H226 lung) was 937 nM. For the same molecule, the GI50 (TK-10 renal) was 185 nM, the TGI (TK-10 renal) was 543 nM and the GI50 (CAKI-1 renal) was 261 nM. It also gave a TGI (CAKI-1 renal) of 1440 nM, a GI50 (MDA-MB-231 breast) of 46.3 nM and a TGI (MDA-MB-231 breast) of 207 nM. The GI50 (RXF 393 renal) was 210 nM, the TGI (RXF 393 renal) was 920 nM and the GI50 (HS 578T breast) was 700 nM. The TGI (HS 578T breast) was 2120 nM, the GI50 (T-47D breast) was 520 nM and the TGI (T-47D breast) was 3210 nM. The GI50 (MOLT-4 leukemia) was 296 nM, the TGI (MOLT-4 leukemia) was 1820 nM and the GI50 (SK-MEL-5 melanoma) was 33.7 nM. It also gave a TGI (SK-MEL-5 melanoma) of 1470 nM, a GI50 (HCC-2998 colon) of 29.9 nM and a TGI (HCC-2998 colon) of 204 nM. The GI50 (SK-MEL-2 melanoma) was 127 nM, the TGI (SK-MEL-2 melanoma) was 289 nM and the GI50 (DU-145 prostate) was 354 nM. The TGI (DU-145 prostate) was 1480 nM, the GI50 (SW-620 colon) was 151 nM and the TGI (SW-620 colon) was 1270 nM. The TGI (MALME-3M melanoma) was 24.7 nM, the GI50 (HCT-116 colon) was 248 nM and the TGI (HCT-116 colon) was 1110 nM. It also gave a TGI (M14 melanoma) of 48.9 nM, a GI50 (NCI/ADR-RES ovarian) of 1130 nM and a TGI (NCI/ADR-RES ovarian) of 2480 nM. For the same molecule, the GI50 (A498 renal) was 519 nM, the TGI (A498 renal) was 2770 nM and the GI50 (HOP-62 NSCLC) was 638 nM. For the same molecule, the TGI (HOP-62 NSCLC) was 2660 nM, the GI50 (CCRF-CEM leukemia) was 1590 nM and the TGI (CCRF-CEM leukemia) was 3400 nM. For the same molecule, the GI50 (EKVX NSCLC) was 113 nM, the TGI (EKVX NSCLC) was 1070 nM and the GI50 (NCI-H460 NSCLC) was 771 nM. The TGI (NCI-H460 NSCLC) was 3650 nM, the GI50 (SF-539 CNS) was 338 nM and the TGI (SF-539 CNS) was 1600 nM. The GI50 (MCF7 breast) was 255 nM, the TGI (MCF7 breast) was 1910 nM and the GI50 (U251 glioblastoma) was 462 nM. For the same molecule, the TGI (U251 glioblastoma) was 2510 nM, the GI50 (HL-60(TB) leukemia) was 36.8 nM and the TGI (HL-60(TB) leukemia) was 196 nM. For the same molecule, the GI50 (RPMI-8226 leukemia) was 696 nM, the TGI (RPMI-8226 leukemia) was 2190 nM and the GI50 (MDA-MB-468 breast) was 303 nM. It also gave a TGI (MDA-MB-468 breast) of 1870 nM, a GI50 (NCI-H522 lung) of 49.4 nM and a TGI (NCI-H522 lung) of 366 nM. For the same molecule, the GI50 (UACC-62 melanoma) was 10.7 nM, the TGI (UACC-62 melanoma) was 54.7 nM and the GI50 (HOP-92 NSCLC) was 273 nM. It also gave a TGI (HOP-92 NSCLC) of 1190 nM.
